In patent publication US9901592B2 (priority 2008, dated 2018):
Values after ≈ are worked out from the molar mass of the structure shown. Values joined by “and” are separate entries in the source; they are usually repeats but may differ in a detail not shown here. Equal entries are not always repeated. Where two headings read alike, the source gives them in different places.

Tests used:
S. pyogenes [1] = assay: microbe, parasite or virus in culture; assay type: cell-based; conditions: for strains with resistant clones / strains tested: S. pyogenes; for MIC: Streptococcus pyogenes; for days until resistant clones (MIC increase): daily passages, max. 50
S. pneumoniae [2] = assay: microbe, parasite or virus in culture; assay type: cell-based; conditions: for MIC90: Streptococcus pneumoniae
streptococci = assay: organism not typed; assay type: cell-based
M. hominis = assay type: cell-based; conditions: M. hominis (13 isolates)
pneumococci = assay: microbe, parasite or virus in culture; assay type: cell-based, S. pneumoniae; conditions: Streptococcus pneumoniae; for MIC50 / MIC90: pneumococci, L4 mutations (27); for MIC: read-out: MIC range, pneumococci, L4 mutations (27)
M. catarrhalis = assay: microbe, parasite or virus in culture; assay type: cell-based; conditions: Moraxella catarrhalis
M. fermentans = assay type: cell-based; conditions: M. fermentans (15 isolates)
S. pneumoniae [3] = assay: mouse systemic infection model (PD50); assay type: in vivo
S. aureus = assay: mouse systemic infection model (PD50); assay type: in vivo
S. pneumoniae [4] = assay: MIC of the strains of the mouse systemic infection model; assay type: cell-based; conditions: Streptococcus pneumoniae
S. pyogenes [5] = assay: mouse systemic infection model (PD50); assay type: in vivo
N. meningitidis = assay: MIC, CLSI broth microdilution, invasive isolates; assay type: cell-based; conditions: Neisseria meningitidis; 62 N. meningitidis isolates
Description: Example. […] Colonization of the nasopharynx (NP) by NM can lead to invasive meningococcal disease. Chemoprophylaxis is used to eradicate NP colonization and prevent transmission to nonimmune contacts. […] 62 isolates (91.9% blood culture) of NM were collected from 29 medical centers in North and South America and Europe (1997-2008). […] Serological identification was performed for serogroups (SGs) B, C, Y and W135.

S. pyogenes ATCC 8668 = assay: mouse subcutaneous abscess model; assay type: in vivo; conditions: 48 hr. post infection
Description: Example. Mouse Subcutaneous Abscess. Bacteria were prepared from an overnight plate culture by re-suspending in saline and adjusting the suspension to a 0.1 OD at 625 nm of a 1:10 dilution. The adjusted bacterial suspension was mixed 1:2 with cyclodextran beads prepared as per package instructions. The right flanks of the mice were shaven and injected subcutaneously with 0.2 ml of the bacterial inoculum. Two hours post infection mice were treated via oral gavage with either test article or control drug. 48 hours post infection, mice were euthanized, abscesses aseptically removed, homogenized, serially diluted and plated on bacterial growth agar. After overnight incubation, colonies were counted and CFUs/gram of abscess were determined.
Example. Mouse Subcutaneous Abscess˜S. pyogenes ATCC 8668 (Average Log10 CFU/gram of Abscess). Abscess processing 48 hours post infection.

[6] = tested on: intraphagocytic L. pneumophila ATCC 33153 (THP-1); assay type: cell-based; conditions: intracellular L. pneumophila ATCC 33153
S. pneumoniae [7] = assay: neutropenic mouse thigh infection; assay type: in vivo; conditions: PO
Description: Example. Neutropenic Mouse Thigh Infection. Mice were rendered neutropenic with IP injections of cyclophosamide at day −4 and day −1 of 150 mg/Kg and 100 mg/Kg, respectively. On day 0 mice were infected with approximately 5×10^5 CFU/ml of bacteria in a 0.1 ml volume into the right thigh. At 1.5 hours post infection mice received treatment via oral gavage. One group of infected mice were euthanized and thigh processed for bacterial titers to serve as T=0 controls. Twenty-four hours post treatment, the remaining mice were euthanized, thighs aseptically removed, weighed, homogenized, serially diluted and plated on bacterial growth media. CFUs per gram of thigh were calculated after overnight incubation of bacterial plates. The amount of test article required to achieve 1, 2, and 3 loge reductions from 24 hour control thighs were calculated. Additional studies were performed that fractionated the single treatment dose (Q24) into two (Q12), three (Q8) and four (Q6) equivalent doses to determine the pharmacodynamic nature of this compound. Further analysis includes static dose, EC50, 1 log kill and maximal effect (Emax).

[8] = read-out: Initial MIC, strain 237 Macrolide-R [LA mutation], parent
[9] = read-out: Initial MIC, strain 2011 Macrolide-R [mef(A)], parent
[10] = read-out: Initial MIC, strain 2094 Macrolide-R [erm(A)], parent
[11] = read-out: Initial MIC, strain 2132 Macrolide-S, parent
[12] = read-out: Initial MIC, strain 2368 Macrolide-R [erm(B)], parent
[13] = read-out: MIC of parents of resistant clones, S. pyogenes
[14] = read-out: Parental MICs, S. pyogenes, 5 strains with varying resistotypes
[15] = read-out: Selected Resistance (MIC), strain 237 Macrolide-R [LA mutation], after serial passages in the drug
[16] = read-out: Selected Resistance (MIC), strain 2011 Macrolide-R [mef(A)], after serial passages in the drug
[17] = read-out: Selected Resistance (MIC), strain 2094 Macrolide-R [erm(A)], after serial passages in the drug
[18] = read-out: Selected Resistance (MIC), strain 2132 Macrolide-S, after serial passages in the drug
[19] = strain 237 Macrolide-R [LA mutation], clone selected with CEM-101
[20] = strain 237 Macrolide-R [LA mutation], clone selected with CLN
[21] = strain 2011 Macrolide-R [mef(A)], clone selected with AZI
[22] = strain 2094 Macrolide-R [erm(A)], clone selected with AZI
[23] = strain 2094 Macrolide-R [erm(A)], clone selected with CEM-101
[24] = strain 2094 Macrolide-R [erm(A)], clone selected with CLN
[25] = strain 2094 Macrolide-R [erm(A)], clone selected with CLR
[26] = strain 2094 Macrolide-R [erm(A)], clone selected with TEL
[27] = strain 2132 Macrolide-S, clone selected with AZI
[28] = strain 2368 Macrolide-R [erm(B)], clone selected with CEM-101
[29] = strain 2368 Macrolide-R [erm(B)], clone selected with TEL
[30] = S. pneumoniae (macrolide susceptible)

## CCC[C@@H]1C[C@@H](C(=O)N[C@@H]([C@H]2O[C@H](SC)[C@H](O)[C@@H](O)[C@H]2O)[C@H](C)Cl)N(C)C1 [CLN, clindamycin]
S. pyogenes [1]
  strains with resistant clones / strains tested: 2/3 and 2/4
  days until resistant clones (MIC increase): 34 to 43 days
S. pyogenes [1]; [8]
  MIC: 0.06 µg/mL (≈ 0.141 µM)
S. pyogenes [1]; [9]
  MIC: 0.06 µg/mL (≈ 0.141 µM)
S. pyogenes [1]; [10]
  MIC: 0.06 µg/mL (≈ 0.141 µM)
S. pyogenes [1]; [11]
  MIC: 0.06 µg/mL (≈ 0.141 µM)
S. pyogenes [1]; [12]
  MIC: > 64 µg/mL
S. pyogenes [1]; [13]
  MIC: 0.06 µg/mL
S. pyogenes [1]; [14]
  MIC: 0.06 µg/mL (≈ 0.141 µM)
S. pyogenes [1]; [15]
  MIC: 0.5 µg/mL (≈ 1.18 µM)
S. pyogenes [1]; [16]
  MIC: 0.06 µg/mL (≈ 0.141 µM)
S. pyogenes [1]; [17]
  MIC: > 64 µg/mL
S. pyogenes [1]; [18]
  MIC: 0.06 µg/mL (≈ 0.141 µM)
S. pyogenes [1]; [19]
  Retest MIC after 10 Antibioticfree Subcultures: 0.03 µg/mL
S. pyogenes [1]; [20]
  Retest MIC after 10 Antibioticfree Subcultures: 1 µg/mL
S. pyogenes [1]; [21]
  Retest MIC after 10 Antibioticfree Subcultures: 0.06 µg/mL
S. pyogenes [1]; [22]
  Retest MIC after 10 Antibioticfree Subcultures: 0.06 µg/mL
S. pyogenes [1]; [23]
  Retest MIC after 10 Antibioticfree Subcultures: 0.06 µg/mL
S. pyogenes [1]; [24]
  Retest MIC after 10 Antibioticfree Subcultures: >64 µg/mL
S. pyogenes [1]; [25]
  Retest MIC after 10 Antibioticfree Subcultures: 0.06 µg/mL
S. pyogenes [1]; [26]
  Retest MIC after 10 Antibioticfree Subcultures: >64 µg/mL
S. pyogenes [1]; [27]
  Retest MIC after 10 Antibioticfree Subcultures: 0.03 µg/mL
S. pyogenes [1]; [28]
  Retest MIC after 10 Antibioticfree Subcultures: >64 µg/mL
S. pyogenes [1]; [29]
  Retest MIC after 10 Antibioticfree Subcultures: >64 µg/mL
S. pneumoniae [2]
  nonsusceptibility: 83.3%
  MIC90: > 16 µg/mL
streptococci
  MIC50: ≤ 0.12 µg/mL
M. hominis
  MIC Range: ≦0.008-0.031 μg/mL
M. hominis; Metamycoplasma hominis, read-out: MIC50
  MIC50: ≤ 0.008 µg/mL
M. hominis; Metamycoplasma hominis, read-out: MIC90
  MIC90: 0.016 µg/mL (≈ 0.0376 µM)
pneumococci
  MIC50: 0.06 µg/mL (≈ 0.141 µM)
  MIC90: 0.125 µg/mL (≈ 0.294 µM)
  MIC: 0.03 to 0.125 µg/mL (≈ 0.0706 to 0.294 µM)
M. catarrhalis
  MIC90: 2 µg/mL (≈ 4.71 µM)
M. fermentans
  MIC Range: ≦0.008-0.063 μg/mL
M. fermentans; Mycoplasmopsis fermentans
  MIC50: 0.016 µg/mL (≈ 0.0376 µM)
  MIC90: 0.031 µg/mL (≈ 0.0729 µM)

## CC[C@H]1OC(=O)[C@H](C)[C@@H](O[C@H]2C[C@@](C)(OC)[C@@H](O)[C@H](C)O2)[C@H](C)[C@@H](O[C@@H]2O[C@H](C)C[C@H](N(C)C)[C@H]2O)[C@](C)(OC)C[C@@H](C)C(=O)[C@H](C)[C@@H](O)[C@]1(C)O [CLR, clarithromycin]
S. pneumoniae [3]; [30]
  PD50: 32.1 mg/kg
S. pneumoniae [3]; S. pneumoniae (mefR)
  PD50: >30 mg/kg
S. pneumoniae [3]; S. pneumoniae serotype 19A
  PD50: 5.03 mg/kg
S. aureus; MRSA
  PD50: 5.0 mg/kg
S. aureus; MRSA 300 (CA)
  PD50: 19.5 mg/kg
S. aureus; S. aureus, single oral dose 1 hr post infection
  PD50: 22.7 mg/kg
S. pneumoniae [4]; [30]
  MIC: > 16 µg/mL
S. pneumoniae [4]; S. pneumoniae (mefR), read-out: MIC
  MIC: 0.5 µg/mL
S. pneumoniae [4]; S. pneumoniae serotype 19A, read-out: MIC
  MIC: > 16 µg/mL
S. pyogenes [1]
  strains with resistant clones / strains tested: 1/4
  days until resistant clones (MIC increase): 6 days
S. pyogenes [1]; [8]
  MIC: 0.25 µg/mL (≈ 0.334 µM)
S. pyogenes [1]; [9]
  MIC: 4 µg/mL (≈ 5.35 µM)
S. pyogenes [1]; [10]
  MIC: 0.5 µg/mL (≈ 0.668 µM)
S. pyogenes [1]; [11]
  MIC: 0.03 µg/mL (≈ 0.0401 µM)
S. pyogenes [1]; [12]
  MIC: > 64 µg/mL
S. pyogenes [1]; read-out: MIC of parent of resistant clone, S. pyogenes
  MIC: 500 µg/mL
S. pyogenes [1]; [13]
  MIC: 0.5 µg/mL
S. pyogenes [1]; read-out: MIC of resistant clones, S. pyogenes
  MIC: > 64 µg/mL
S. pyogenes [1]; [14]
  MIC: 0.03 to 4 µg/mL (≈ 0.0401 to 5.35 µM)
S. pyogenes [1]; [15]
  MIC: 1 µg/mL (≈ 1.34 µM)
S. pyogenes [1]; [16]
  MIC: 8 µg/mL (≈ 10.7 µM)
S. pyogenes [1]; [17]
  MIC: > 64 µg/mL
S. pyogenes [1]; [18]
  MIC: 0.016 µg/mL (≈ 0.0214 µM)
S. pyogenes [1]; [19]
  Retest MIC after 10 Antibioticfree Subcultures: 1 µg/mL
S. pyogenes [1]; [20]
  Retest MIC after 10 Antibioticfree Subcultures: 0.5 µg/mL
S. pyogenes [1]; [21]
  Retest MIC after 10 Antibioticfree Subcultures: 4 µg/mL
S. pyogenes [1]; [22]
  Retest MIC after 10 Antibioticfree Subcultures: 1 µg/mL
S. pyogenes [1]; [23]
  Retest MIC after 10 Antibioticfree Subcultures: 8 µg/mL
S. pyogenes [1]; [24]
  Retest MIC after 10 Antibioticfree Subcultures: 1 µg/mL
S. pyogenes [1]; [25]
  Retest MIC after 10 Antibioticfree Subcultures: >64 µg/mL
S. pyogenes [1]; [26]
  Retest MIC after 10 Antibioticfree Subcultures: 8 µg/mL
S. pyogenes [1]; [27]
  Retest MIC after 10 Antibioticfree Subcultures: 0.25b μg/ml
S. pyogenes [1]; [28]
  Retest MIC after 10 Antibioticfree Subcultures: >64 µg/mL
S. pyogenes [1]; [29]
  Retest MIC after 10 Antibioticfree Subcultures: >64 µg/mL
S. pneumoniae [2]
  MIC90: > 32 µg/mL
streptococci
  MIC50: 0.03 µg/mL (≈ 0.0401 µM)
  MIC90: 0.03 µg/mL (≈ 0.0401 µM)
  MIC Range: ≦0.008-0.25 μg/ml
S. pyogenes [5]; S. pyogenes (erythromycin R)
  PD50: 22.8 mg/kg
S. pyogenes [5]; S. pyogenes (macrolide susceptible)
  PD50: 24.8 mg/kg
N. meningitidis
  MIC: 0.015 to 0.25 µg/mL (≈ 0.0201 to 0.334 µM)
  MIC50: 0.03 µg/mL (≈ 0.0401 µM)
  MIC90: 0.12 µg/mL (≈ 0.16 µM)
pneumococci
  MIC50: 16 µg/mL (≈ 21.4 µM)
  MIC90: 32 µg/mL (≈ 42.8 µM)
  MIC: 1 to 32 µg/mL (≈ 1.34 to 42.8 µM)
M. catarrhalis
  MIC90: 0.12 µg/mL (≈ 0.16 µM)
S. pyogenes ATCC 8668; 10 mg/Kg
  Average Log10 CFU/gram of Abscess: 7.63 Log10 CFU/gram
S. pyogenes ATCC 8668; 20 mg/Kg
  Average Log10 CFU/gram of Abscess: 7.82 Log10 CFU/gram
[6]
  Cs, static concentration: 0.12 mg/L
S. pneumoniae [7]; S. pneumoniae 1629
  Max. change in log10CFUs from 24 hr. controls: −5.75 log10CFUs
S. pneumoniae [7]; S. pneumoniae 1629, QD
  Dose for 2 log10 Reduction from 24 hour controls: 9.0 mg/Kg
S. pneumoniae [7]; S. pneumoniae 6303
  Max. change in log10CFUs from 24 hr. controls: −5.20 log10CFUs
